In article PMC9090415, “Discovery of small molecule inhibitors of Plasmodium falciparum apicoplast DNA polymerase” (Journal of Enzyme Inhibition and Medicinal Chemistry, 2022):

Molecular target: P. falciparum apicoplast DNA polymerase (Pf-apPOL) (Plasmodium falciparum, UniProt Q8ILY1)
Test: Fluorescence-based high-throughput DNA polymerase assay (molecular beacon), primary screen and dose-response
Format: biochemical
Conditions: for DNA Pol: 90 min, 10 µM
Method in brief: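 Single-point screening used 10 µM compound with 20 nM polymerase, 20 nM hairpin substrate and 6 µM dNTPs for 90 min at 25 °C. Confirmatory titrations (2.5–80 µM) followed fluorescence at three times, and IC50 was derived from a fit including a cooperativity term n.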

Sequence of P. falciparum apicoplast DNA polymerase (Pf-apPOL) (Q8ILY1 entry or part of it): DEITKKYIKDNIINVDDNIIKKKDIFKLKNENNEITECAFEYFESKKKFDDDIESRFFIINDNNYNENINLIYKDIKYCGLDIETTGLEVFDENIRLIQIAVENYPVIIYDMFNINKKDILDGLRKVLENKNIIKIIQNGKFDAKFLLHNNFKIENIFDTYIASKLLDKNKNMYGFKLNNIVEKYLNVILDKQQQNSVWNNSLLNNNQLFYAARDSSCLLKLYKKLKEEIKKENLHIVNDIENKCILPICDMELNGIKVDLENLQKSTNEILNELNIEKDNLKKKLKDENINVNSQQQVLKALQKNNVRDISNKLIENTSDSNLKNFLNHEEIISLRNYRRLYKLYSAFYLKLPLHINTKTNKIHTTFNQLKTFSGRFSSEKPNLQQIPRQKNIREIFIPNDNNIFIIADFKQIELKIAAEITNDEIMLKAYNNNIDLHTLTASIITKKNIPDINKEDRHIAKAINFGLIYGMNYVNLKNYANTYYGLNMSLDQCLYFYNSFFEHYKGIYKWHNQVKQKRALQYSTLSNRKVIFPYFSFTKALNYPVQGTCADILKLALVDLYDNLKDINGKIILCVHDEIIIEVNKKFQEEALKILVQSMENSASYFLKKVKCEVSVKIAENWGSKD

## COCCN(CCOC)Cc1c(O)ccc2c1OC(=Cc1cc(Br)ccc1OC)C2=O [KU0198471]
'DNA Pol' of the 186 hits list (primary screen result), unit not given
  DNA Pol: 63
DRC-1, concentration 2.5
  % inhibition Apo pol 10': -2.842%
  % inhibition Apol 90': 0.2446%
  % inhibition apPOL 180': 3.8606%
DRC-1, concentration 5
  % inhibition Apo pol 10': 2.517%
  % inhibition Apol 90': 8.305%
  % inhibition apPOL 180': 14.5947%
DRC-1, concentration 10
  % inhibition Apo pol 10': 15.0312%
  % inhibition Apol 90': 20.0345%
  % inhibition apPOL 180': 28.8657%
DRC-1, concentration 20
  % inhibition Apo pol 10': 43.5523%
  % inhibition Apol 90': 57.0182%
  % inhibition apPOL 180': 74.003%
DRC-1, concentration 40
  % inhibition Apo pol 10': 79.9378%
  % inhibition Apol 90': 88.9313%
  % inhibition apPOL 180': 99.2826%
DRC-1, concentration 80
  % inhibition Apo pol 10': 100.142%
  % inhibition Apol 90': 100.102%
  % inhibition apPOL 180': 101.453%
DRC-2, 5', concentration 2.5 (unit not given)
  % inhibition Apo pol 5': 10%
DRC-2, 40', concentration 2.5 (unit not given)
  % inhibition Apol 40': 10%
DRC-2, 5', concentration 2.5
  % inhibition Apo pol 5': 10%
DRC-2, 5', concentration 5
  % inhibition Apo pol 5': 10%
DRC-2, 5', concentration 5 (unit not given)
  % inhibition Apo pol 5': 10%
DRC-2, 5', concentration 10
  % inhibition Apo pol 5': 33%
DRC-2, 5', concentration 20
  % inhibition Apo pol 5': 48%
DRC-2, 5', concentration 40
  % inhibition Apo pol 5': 59%
DRC-2, 5', concentration 80
  % inhibition Apo pol 5': 60%
DRC-2, 40', concentration 2.5
  % inhibition Apol 40': 10%
DRC-2, 40', concentration 5
  % inhibition Apol 40': 6%
DRC-2, 40', concentration 10
  % inhibition Apol 40': 36%
DRC-2, 40', concentration 20
  % inhibition Apol 40': 53%
DRC-2, 40', concentration 40
  % inhibition Apol 40': 73%
DRC-2, 40', concentration 80
  % inhibition Apol 40': 79%
DRC-2, concentration 2.5
  % inhibition ApPOL 90': 10%
  % inhibition apPOL 180': 4.6%
DRC-2, concentration 2.5 (unit not given)
  % inhibition ApPOL 90': 10%
DRC-2, concentration 5
  % inhibition ApPOL 90': -0.305%
  % inhibition apPOL 180': -68%
DRC-2, concentration 10
  % inhibition ApPOL 90': 34%
  % inhibition apPOL 180': 25%
DRC-2, concentration 20
  % inhibition ApPOL 90': 52%
  % inhibition apPOL 180': 41%
DRC-2, concentration 40
  % inhibition ApPOL 90': 75%
  % inhibition apPOL 180': 72%
DRC-2, concentration 80
  % inhibition ApPOL 90': 82%
  % inhibition apPOL 180': 85%
Primary screen value of the library well, unit not given
  DNA Pol: 63

## COc1ccccc1C1CC(=O)Oc2cc3c(cc21)OCO3 (centres unmarked) [KU0104502]
'DNA Pol' of the 186 hits list (screen value)
  DNA Pol: 42
DRC-1, conc 2.5
  % inhibition Apo pol 10': 16.5835%
  % inhibition Apol 90': 2.531%
  % inhibition apPOL 180': -4.384%
DRC-1, conc 5
  % inhibition Apo pol 10': 35.5684%
  % inhibition Apol 90': 13.2862%
  % inhibition apPOL 180': 1.7201%
DRC-1, conc 10
  % inhibition Apo pol 10': 61.1126%
  % inhibition Apol 90': 34.6587%
  % inhibition apPOL 180': 18.8078%
DRC-1, conc 20
  % inhibition Apo pol 10': 76.0203%
  % inhibition Apol 90': 54.2638%
  % inhibition apPOL 180': 38.0211%
DRC-1, conc 40
  % inhibition Apo pol 10': 89.9974%
  % inhibition Apol 90': 81.0345%
  % inhibition apPOL 180': 74.6782%
DRC-1, conc 80
  % inhibition Apo pol 10': 93.475%
  % inhibition Apol 90': 93.8969%
  % inhibition apPOL 180': 93.9211%
DRC-2, 5', conc 2.5
  % inhibition Apo pol 5': 10%
DRC-2, 5', conc 5
  % inhibition Apo pol 5': 34%
DRC-2, 5', conc 10
  % inhibition Apo pol 5': 50%
DRC-2, 5', conc 20
  % inhibition Apo pol 5': 59%
DRC-2, 5', conc 40
  % inhibition Apo pol 5': 65%
DRC-2, 5', conc 80
  % inhibition Apo pol 5': 66%
DRC-2, 40', conc 2.5
  % inhibition Apol 40': 4.3%
DRC-2, 40', conc 5
  % inhibition Apol 40': 27%
DRC-2, 40', conc 10
  % inhibition Apol 40': 47%
DRC-2, 40', conc 20
  % inhibition Apol 40': 62%
DRC-2, 40', conc 40
  % inhibition Apol 40': 75%
DRC-2, 40', conc 80
  % inhibition Apol 40': 80%
DRC-2, conc 2.5
  % inhibition ApPOL 90': 1.26%
  % inhibition apPOL 180': -2.17%
DRC-2, conc 5
  % inhibition ApPOL 90': 23%
  % inhibition apPOL 180': 12%
DRC-2, conc 10
  % inhibition ApPOL 90': 42%
  % inhibition apPOL 180': 31%
DRC-2, conc 20
  % inhibition ApPOL 90': 60%
  % inhibition apPOL 180': 53%
DRC-2, conc 40
  % inhibition ApPOL 90': 77%
  % inhibition apPOL 180': 78%
DRC-2, conc 80
  % inhibition ApPOL 90': 82%
  % inhibition apPOL 180': 85%
Primary screen value, "DNA Pol"
  DNA Pol: 42
